Read-outs that look alike come from different tables or passages of the source.
Legend:
P. aeruginosa = assay type: cell-based; conditions: for Peptide MIC values: agarose dilution
E. cloacae = assay type: cell-based; conditions: E. cloacae strain ECL007
[1] = system: inherently resistant microorganisms; experiment: microbe, parasite or virus in culture; assay type: cell-based; conditions: S. aureus MRSA
H. influenzae = experiment: Agarose dilution assay (MIC); assay type: cell-based; conditions: H. influenzae strain HIN002
[2] = system: microorganisms with acquired resistance; experiment: microbe, parasite or virus in culture; assay type: cell-based; conditions: for Peptide MIC Alone: Piperacillin section; for FIC: peptide + Piperacillin
[3] = system: MSSA (Smith, ATCC # 19640); experiment: In vivo efficacy, MSSA infection; design: species or system S. aureus; conditions: 18 mg/kg ip, formulation D, 60 min post-infection; end of eight day observation
E. faecium = assay type: cell-based; conditions: for MIC: E. faecium strain EFM003
S. pneumoniae = experiment: Agarose dilution assay (MIC); assay type: cell-based; conditions: for Peptide MIC values: agarose dilution
K. pneumoniae = assay type: cell-based
S. maltophilia = assay type: cell-based; conditions: S. maltophilia strain SMA001
S. pyogenes = experiment: Agarose dilution assay (MIC); assay type: cell-based; conditions: S. pyogenes strain SPY002
S. aureus = assay type: cell-based; conditions: for Peptide MIC values: agarose dilution
E. faecalis = assay type: cell-based
[4] = system: P388ADR, lymphocytic leukemia, multidrug resistant; experiment: Cell death by Cytotox (Promega) lactate dehydrogenase release; assay type: cell-based; conditions: LDH release
Protocol: (§1) In addition, APO-peptides and parent peptides are tested against a panel of cancer cell lines. Cell death is measured using the Cytotox (Promega) assay kit which measures the release of lactate dehydrogenase.
(§2) PBL, peripheral blood lymphocytes; HUVEC, human umbilical vein endothelial cells; H460,non-small lung tumor; K562, chronic myelogenous leukemia; DoHH-2, B-cell cell lymphoma; P388, lymphocytic leukemia; P388ADR, lymphocytic leukemia, multidrug resistant; MCF-7, breast carcinoma; MCF-7ADR, breast carcinoma, multidrug resistant.

[5] = system: H460, non-small lung tumor; experiment: as above; assay type: cell-based; conditions: LDH release
Protocol: as §1, §2

[6] = system: MCF-7ADR, breast carcinoma, multidrug resistant; experiment: as above; assay type: cell-based; conditions: LDH release
Protocol: as §1, §2

[7] = system: PBL, peripheral blood lymphocytes; experiment: as above; assay type: cell-based; conditions: LDH release
Protocol: as §1, §2

[8] = system: K562, chronic myelogenous leukemia; experiment: as above; assay type: cell-based; conditions: LDH release
Protocol: as §1, §2

[9] = system: DoHH-2, B-cell cell lymphoma; experiment: as above; assay type: cell-based; conditions: LDH release
Protocol: as §1, §2

[10] = system: HUVEC, human umbilical vein endothelial cells; experiment: as above; assay type: cell-based; conditions: LDH release
Protocol: as §1, §2

[11] = system: P388, lymphocytic leukemia; experiment: as above; assay type: cell-based; conditions: LDH release
Protocol: as §1, §2

MCF-7, breast carcinoma = experiment: as above; assay type: cell-based; conditions: LDH release
Protocol: as §1, §2

S. marcescens = assay type: cell-based; conditions: for Peptide MIC values: agarose dilution
E. coli = assay type: cell-based; conditions: for Peptide MIC values: agarose dilution
A. calcoaceticus = assay type: cell-based; conditions: A. calcoaceticus strain AC001
bacterial isolates = experiment: microbe, parasite or virus in culture; assay type: cell-based
P. mirabilis = experiment: Agarose dilution assay (MIC); assay type: cell-based; conditions: P. mirabilis strain PM001
S. epidermidis = assay type: cell-based; conditions: S. epidermidis strain SE002
P. vulgaris = experiment: Agarose dilution assay (MIC); assay type: cell-based
[12] = system: mammalian red blood cells; conditions: 37° C., 1 hour
Protocol: Candidate cationic peptides may be further tested for their toxicity to normal mammalian cells. An exemplary assay is a red blood cell (RBC) (erythrocyte) hemolysis assay. Briefly, in this assay, red blood cells are isolated from whole blood, typically by centrifugation, and washed free of plasma components. A 5% (v/v) suspension of erythrocytes in isotonic saline is incubated with different concentrations of peptide analogue. […] After incubation for approximately 1 hour at 37° C., the cells are centrifuged, and the absorbance of the supernatant at 540 nm is determined. A relative measure of lysis is determined by comparison to absorbance after complete lysis of erythrocytes using NH4Cl or equivalent (establishing a 100% value). A peptide with <10% lysis at 100 μg/ml is suitable. Preferably, there is <5% lysis at 100 μg/ml. Such peptides that are not lytic, or are only moderately lytic, are desirable and suitable for further screening.
Cationic peptides are tested for toxicity towards eukaryotic cells by measuring the extent of lysis of mammalian red blood cells (RBC). Briefly, in this assay, red blood cells are separated from whole blood by centrifugation and washed free of plasma components. A 5% (v/v) washed red blood cell suspension is prepared in isotonic saline. An aliquot of peptide in formulation is then added and mixed in. After incubation at 37° C. for 1 hour with constant agitation, the solution is centrifuged and the supernatant measured for absorbance at 540 nm to detect released hemoglobin.
A combination of cationic peptide and antibiotic agent is tested for toxicity towards eukaryotic cells by measuring the extent of lysis of mammalian red blood cells. Briefly, red blood cells are separated from whole blood by centrifugation, washed free of plasma components, and resuspended to a 5% (v/v) suspension in isotonic saline. […] Following incubation with constant agitation at 37° C. for 1 hour, the solution is centrifuged, and the absorbance of the supernatant is measured at 540 nm, which detects released hemoglobin. […]

## ILKKWPWWPWRRK [MBI 11E3CN]
P. aeruginosa; P. aeruginosa strain PA041
  MIC: 64 µg/mL
E. cloacae
  MIC: >128 µg/mL
[1]
  Peptide MIC + Piperacillin: 2 µg/mL
[1]; Piperacillin section
  Peptide MIC Alone: 4 µg/mL
[1]; peptide + Piperacillin
  FIC: 0.51
H. influenzae
  MIC: >128 µg/mL
[2]; A. calcoaceticus 3
  Peptide MIC + Piperacillin: 8 µg/mL
  Piperacillin MIC + Peptide: 16 µg/mL
  Peptide MIC Alone: 32 µg/mL
  FIC: 0.75
[2]; H. influenzae 1
  Peptide MIC + Piperacillin: 64 µg/mL
  Piperacillin MIC + Peptide: 8 µg/mL
  Peptide MIC Alone: >128 µg/mL
  FIC: 0.38
[2]; H. influenzae 2
  Peptide MIC + Piperacillin: 16 µg/mL
  Piperacillin MIC + Peptide: 8 µg/mL
  Peptide MIC Alone: >128 µg/mL
  FIC: 0.31
[2]; P. aeruginosa 7
  Peptide MIC + Piperacillin: 32 µg/mL
  Piperacillin MIC + Peptide: 64 µg/mL
  Peptide MIC Alone: 64 µg/mL
  FIC: 1.00
[2]; P. aeruginosa 23
  Peptide MIC + Piperacillin: 1 µg/mL
  Piperacillin MIC + Peptide: 32 µg/mL
  Peptide MIC Alone: 64 µg/mL
  FIC: 0.27
[2]; S. maltophilia 3
  Peptide MIC + Piperacillin: 16 µg/mL
  Piperacillin MIC + Peptide: 16 µg/mL
  Peptide MIC Alone: 32 µg/mL
  FIC: 0.75
[2]; S. maltophilia 4
  Peptide MIC + Piperacillin: 16 µg/mL
  Piperacillin MIC + Peptide: 16 µg/mL
  Peptide MIC Alone: 32 µg/mL
  FIC: 0.75
[2]; S. marcescens SB1
  Peptide MIC + Piperacillin: 2 µg/mL
  Piperacillin MIC + Peptide: 16 µg/mL
  Peptide MIC Alone: >128 µg/mL
  FIC: 0.26
[3]
  % Survival: 70%
E. faecium
  MIC: 2 µg/mL
S. pneumoniae; S. pneumoniae strain SBSPN2
  MIC: >128 µg/mL
S. pneumoniae; S. pneumoniae strain SPN044
  MIC: >128 µg/mL
K. pneumoniae; K. pneumoniae strain KP002
  MIC: 32 µg/mL
S. maltophilia
  MIC: 32 µg/mL
S. pyogenes
  MIC: 16 µg/mL
S. aureus; S. aureus strain SA010
  MIC: 2 µg/mL
E. faecalis; E. faecalis strain EFS004
  MIC: 8 µg/mL
[4]
  LC50 ± S.E., P388 ADR: 7.9 ± 3 µg/mL
[5]
  LC50 ± S.E., H460: 18 µg/mL
[6]
  LC50 ± S.E., MCF-7 ADR: 5.3 ± 1 µg/mL
[7]
  LC50 ± S.E., PBL: 22 ± 11 µg/mL
[8]
  LC50 ± S.E., K562: 9 µg/mL
[9]
  LC50 ± S.E., DoHH-2: 3.6 µg/mL
[10]
  LC50 ± S.E., HUVEC: 117 ± 7 µg/mL
[11]
  LC50 ± S.E., P388: 13.9 ± 3 µg/mL
MCF-7, breast carcinoma
  LC50 ± S.E., MCF-7: 5.6 ± 2 µg/mL
S. marcescens; S. marcescens strain SMS004
  MIC: >128 µg/mL
E. coli; E. coli strain ECO001
  MIC: 4 µg/mL
A. calcoaceticus
  MIC: 16 µg/mL
Bacterial isolates; H. influenzae 1
  Peptide MIC + Piperacillin: 4 µg/mL
  Piperacillin MIC + Peptide: 32 µg/mL
Bacterial isolates; H. influenzae 1, Piperacillin section
  Peptide MIC Alone: >128 µg/mL
Bacterial isolates; H. influenzae 2
  Peptide MIC + Piperacillin: 16 µg/mL
  Piperacillin MIC + Peptide: 8 µg/mL
Bacterial isolates; H. influenzae 2, Piperacillin section
  Peptide MIC Alone: >128 µg/mL
Bacterial isolates; P. aeruginosa 23
  Peptide MIC + Piperacillin: 1 µg/mL
  Piperacillin MIC + Peptide: 32 µg/mL
Bacterial isolates; P. aeruginosa 23, Piperacillin section
  Peptide MIC Alone: 64 µg/mL
Bacterial isolates; P. aeruginosa 32
  Peptide MIC + Piperacillin: 8 µg/mL
  Piperacillin MIC + Peptide: 32 µg/mL
Bacterial isolates; P. aeruginosa 32, Piperacillin section
  Peptide MIC Alone: 64 µg/mL
Bacterial isolates; S. aureus 19 MRSA
  Peptide MIC + Piperacillin: 1 µg/mL
  Piperacillin MIC + Peptide: 64 µg/mL
Bacterial isolates; S. aureus 19 MRSA, Piperacillin section
  Peptide MIC Alone: 4 µg/mL
Bacterial isolates; S. maltophilia 11
  Peptide MIC + Piperacillin: 64 µg/mL
  Piperacillin MIC + Peptide: 2 µg/mL
Bacterial isolates; S. maltophilia 11, Piperacillin section
  Peptide MIC Alone: 128 µg/mL
Bacterial isolates; S. marcescens SB1
  Peptide MIC + Piperacillin: 2 µg/mL
  Piperacillin MIC + Peptide: 16 µg/mL
Bacterial isolates; S. marcescens SB1, Piperacillin section
  Peptide MIC Alone: >128 µg/mL
Bacterial isolates; peptide + Piperacillin, H. influenzae 1
  FIC: 0.52
Bacterial isolates; peptide + Piperacillin, H. influenzae 2
  FIC: 0.31
Bacterial isolates; peptide + Piperacillin, P. aeruginosa 23
  FIC: 0.27
Bacterial isolates; peptide + Piperacillin, P. aeruginosa 32
  FIC: 0.63
Bacterial isolates; peptide + Piperacillin, S. aureus 19 MRSA
  FIC: 0.50
Bacterial isolates; peptide + Piperacillin, S. maltophilia 11
  FIC: 0.51
Bacterial isolates; peptide + Piperacillin, S. marcescens SB1
  FIC: 0.26
P. mirabilis
  MIC: >128 µg/mL

## ILKKYPYYPYRRK [MBI 11A3CN]
P. aeruginosa; P. aeruginosa strain PA002
  MIC: >128 µg/mL
P. aeruginosa; P. aeruginosa ATCC 27853
  Peptide MIC values: >128 µg/mL
P. aeruginosa; P. aeruginosa NCTC 10662
  Peptide MIC values: >128 µg/mL
E. cloacae
  MIC: >128 µg/mL
H. influenzae
  MIC: >128 µg/mL
E. faecium
  MIC: 64 µg/mL
E. faecium; agarose dilution
  Peptide MIC values: >128 µg/mL
S. pneumoniae; S. pneumoniae strain SBSPN3
  MIC: >128 µg/mL
S. pneumoniae; S. pneumoniae 406LE8
  Peptide MIC values: >128 µg/mL
S. pneumoniae; S. pneumoniae 60120
  Peptide MIC values: >128 µg/mL
S. pneumoniae; S. pneumoniae ATCC 49619
  Peptide MIC values: >128 µg/mL
K. pneumoniae; K. pneumoniae strain KP001
  MIC: >128 µg/mL
S. maltophilia
  MIC: >128 µg/mL
S. epidermidis
  MIC: 128 µg/mL
S. aureus; S. aureus strain SA004
  MIC: 32 µg/mL
S. aureus; S. aureus ATCC 29213
  Peptide MIC values: 16 µg/mL
S. aureus; S. aureus MRSA9
  Peptide MIC values: 128 µg/mL
S. aureus; S. aureus MRSA13
  Peptide MIC values: >128 µg/mL
S. aureus; S. aureus MRSA17
  Peptide MIC values: >128 µg/mL
S. aureus; S. aureus SA206
  Peptide MIC values: >128 µg/mL
E. faecalis; E. faecalis strain EFS002
  MIC: >128 µg/mL
[4]
  LC50 ± S.E., P388 ADR: >300 µg/mL
[5]
  LC50 ± S.E., H460: >500 µg/mL
[7]
  LC50 ± S.E., PBL: >500 µg/mL
[8]
  LC50 ± S.E., K562: >500 µg/mL
[9]
  LC50 ± S.E., DoHH-2: >500 µg/mL
[10]
  LC50 ± S.E., HUVEC: >500 µg/mL
[11]
  LC50 ± S.E., P388: >300 µg/mL
S. marcescens; S. marcescens strain SBSM2
  MIC: >128 µg/mL
S. marcescens; S. marcescens SM76
  Peptide MIC values: >128 µg/mL
S. marcescens; S. marcescens SM82
  Peptide MIC values: >128 µg/mL
E. coli; E. coli strain ECO002
  MIC: >128 µg/mL
E. coli; E. coli ATCC 25922
  Peptide MIC values: >128 µg/mL
E. coli; E. coli ESS
  Peptide MIC values: >128 µg/mL
E. coli; E. coli NCTC 10418
  Peptide MIC values: 64 µg/mL
P. vulgaris; P. vulgaris strain SBPV1
  MIC: >128 µg/mL
P. vulgaris; agarose dilution, P. vulgaris ATCC 13315
  Peptide MIC values: >128 µg/mL
A. calcoaceticus
  MIC: >128 µg/mL
Bacterial isolates; E. coli SBECO1
  Mupirocin MIC + Peptide: 30 µg/mL
  Peptide MIC + Mupirocin: 8 µg/mL
Bacterial isolates; E. coli SBECO1, Mupirocin section
  Peptide MIC Alone: 64 µg/mL
Bacterial isolates; peptide + Mupirocin, E. coli SBECO1
  FIC: 0.43

## CC[C@H](C)[C@H](NC(=O)CNC(=O)[C@@H](NC(=O)[C@H](CCCCN)NC(=O)[C@H](CCCCN)NC(=O)[C@H](Cc1ccccc1)NC(=O)[C@H](CC(C)C)NC(=O)[C@H](CCCCN)NC(=O)[C@H](Cc1c[nH]c2ccccc12)NC(=O)[C@@H](N)CCCCN)[C@@H](C)CC)C(=O)NCC(=O)N[C@@H](C)C(=O)N[C@H](C(=O)N[C@@H](CC(C)C)C(=O)N[C@@H](CCCCN)C(=O)N[C@H](C(=O)N[C@@H](CC(C)C)C(=O)N[C@H](C(=O)N[C@H](C(=O)NCC(=O)N[C@@H](CC(C)C)C(=O)N1CCC[C@H]1C(=O)N[C@@H](C)C(=O)N[C@@H](CC(C)C)C(=O)N[C@@H](CCCCN)C(=O)N[C@@H](CC(C)C)C(=O)N[C@H](C(=O)N[C@@H](CCCCN)C(=O)O)[C@@H](C)O)[C@@H](C)O)[C@@H](C)O)C(C)C)C(C)C [MBI 28]
[12]
  % Lysis: 4.7%

Source: patent US20020035061A1, “COMPOSITIONS AND METHODS FOR TREATING INFECTIONS USING CATIONIC PEPTIDES ALONE OR IN COMBINATION WITH ANTIBIOTICS” (priority 1996, published 2002)
